Key:
Rhizoctonia = assay: Viability of Rhizoctonia propagules on treated potato tubers in storage
Method: (§1) The efficacy of combinations of essential oils and potassium salt of phosphonic acid (potassium sesquiphosphite) to reduce the viability of fungal infection and diseases in potatoes during storage was measured in the following manner: the tubers were collected. 500 tubers were selected for their average infection of Rhizoctonia (variety Nicola Bio); Helminthosporium solani (variety Vivaldi traditional). The tubers were incubated at 15° C. for 45 days to allow the development of symptoms. 50 tubers (6 to 8 kg) were treated with a composition of essential oil (at 570 ppm or 1140 ppm), a composition of potassium salt of phosphonic acid at 0.6% or 1.2% by weight, as well as mixtures thereof. The phosphonic acid solution was sprayed at ambient temperature at an application rate of 75 mL per 5 kg. 50 mL of clove oil solution were sprayed out. The tubers were incubated at 8° C. for 45 days after treatment. The viability of colonies of Rhizoctonia and Helminthosporium was monitored.

Helminthosporium solani = assay: Viability of Helminthosporium solani propagules on treated potato tubers in storage
Method: as §1

[1] = test system: Colletotrichum gloeosporioides; assay: Treatment of olive trees affected by Colletotrichum gloeosporioides; type: in vivo; conditions: for Percentage of olive leaves with symptoms of infection: dose 0.5% of potassium sesquiphosphite composition alone
Description: A composition at about 20% of clove oil and a composition of the potassium salt of phosphonic acid were separately applied at doses of 0.3% and 0.5% respectively, as well as in combination with the same doses.

Penicilliums = conditions: ambient temperature, treatment doses close to 10,000 ppm, oranges; cited from earlier work
[2] = test system: Colletotrichum gloeosporioides; conditions: in vivo; cited from earlier work
Geotrichum sp = assay: Efficacy against Geotrichum sp on inoculated citrus (mandarin ortanique); type: in vivo; conditions: K-Phos 500 ml/100 L (375 g/100 L potassium sesquiphosphite), spraying at ambient temperature
Method: The fruits were inoculated with a suspension of spores of Geotrichum sp after perforation of the skin. […] When clove oil alone was applied, the fruits were immersed for 2 min in a bath at a temperature of between 49° C. and 51° C. The fruits were stored. At various time intervals, the fruits were individually inspected for signs of phytotoxicity and efficacy by determining the percentage of the surface of the skin affected and the stage of development of the disease in the controls. The variables studied were the incidence (percentage of fruit affected) and severity of the attack (percentage of the fruit surface affected by the disease).

[3] = 570 ppm oil/terpene alone, potato tubers sprayed, 45 days at 8° C. after treatment
[4] = 0.6% potassium sesquiphosphite alone, potato tubers sprayed at ambient temperature, 45 days at 8° C. after treatment
[5] = 1.2% potassium sesquiphosphite alone, potato tubers sprayed at ambient temperature, 45 days at 8° C. after treatment

Compound: Cc1ccc(C(C)C)cc1O [carvacrol]
- Viability of Propagules (%) Rhizoctonia (Rhizoctonia; [3]): 52%
- Viability of Propagules (%) Helminthosporium solani (Helminthosporium solani; [3]): 50%

Compound: O=[PH](O)O [phosphonic acid, Phosphonic acid]
- control of the growth of Rhizoctonia (Rhizoctonia; applied alone): altogether insufficient degree
- control of the growth of Helminthosporium solani (Helminthosporium solani; applied alone): altogether insufficient degree
- activity compared to the control (olive leaf infection) ([1]; applied alone): low level of activity
- activity on Penicilliums (Penicilliums): very weak

Compound: O=C1C2CC=CCC2C(=O)N1SC(Cl)(Cl)Cl (stereo not drawn) [Captan]
- activity in control of the disease in olive orchards [2]: low level of activity

Compound: Cc1ccc(C(C)C)c(O)c1 [thymol]
- Viability of Propagules (%) Rhizoctonia (Rhizoctonia; Rhizoctonia, in vivo, 45 days, 570 ppm): 75%
- Viability of Propagules (%) Helminthosporium solani (Helminthosporium solani; Helminthosporium solani, in vivo, 45 days, 570 ppm): 45%

Compound: CC(C)=CCC/C(C)=C/CO [geraniol]
- Viability of Propagules (%) Rhizoctonia (Rhizoctonia; [3]): 83%
- Viability of Propagules (%) Helminthosporium solani (Helminthosporium solani; [3]): 38%

Compound: potassium sesquiphosphite
- Viability of Propagules (%) Rhizoctonia (Rhizoctonia; [4]): 60%
- Viability of Propagules (%) Rhizoctonia (Rhizoctonia; [5]): 22%
- Viability of Propagules (%) Helminthosporium solani (Helminthosporium solani; [4]): 30%
- Viability of Propagules (%) Helminthosporium solani (Helminthosporium solani; [5]): 6%
- Percentage of fruit affected after 14 days, value in parentheses (activity compared to the control) (Geotrichum sp): no activity
- Percentage of olive leaves with symptoms of infection ([1]; t1 + 90 days): 50%
- Percentage of olive leaves with symptoms of infection ([1]; t1): 41%

From patent US9072306B2, “Method for the pre- or post-harvest treatment of plant products, using phosphonic acid and an essential oil” (priority 2010, dated 2015)
